Results as given in patent publication US11484543B2, “Compositions and methods for diagnosing and treating diseases and disorders associated with mutant KCNJ5” (The Rockefeller University, priority 2017, dated 2022).
Residue numbers refer to the chain shown, from its start.

Tests used:
[1] = target: T1, KCNJ5^G151R (Homo sapiens, UniProt P48544, G151R); assay: cell-based; assay type: cell-based
T1 construct: expressed in transfected cells
T1 sequence (P48544 1-419 G151R): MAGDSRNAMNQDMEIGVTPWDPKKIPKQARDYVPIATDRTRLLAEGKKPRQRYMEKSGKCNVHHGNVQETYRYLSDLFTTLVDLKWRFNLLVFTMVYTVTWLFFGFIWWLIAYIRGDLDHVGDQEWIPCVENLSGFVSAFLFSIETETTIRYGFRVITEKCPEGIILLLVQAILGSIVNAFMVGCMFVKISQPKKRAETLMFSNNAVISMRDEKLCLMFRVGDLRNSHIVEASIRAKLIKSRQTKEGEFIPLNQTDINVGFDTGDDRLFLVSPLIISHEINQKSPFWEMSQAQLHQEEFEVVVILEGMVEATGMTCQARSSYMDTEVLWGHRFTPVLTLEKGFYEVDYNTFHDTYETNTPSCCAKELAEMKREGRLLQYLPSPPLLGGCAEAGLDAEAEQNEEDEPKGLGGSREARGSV
Outline: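 Viability is read as cellular ATP by CellTiter-Glo luminescence 72 h later at 37 °C. Uninduced and induced untreated cells set 100% and 0% effect; curves use a 4-parameter logistic fit.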

[2] = target: T2, KCNJ5^WT (Homo sapiens, UniProt P48544); assay: Membrane potential assay (FLIPR dye) in inducible KCNJ5^WT HEK293 cells; assay type: cell-based
T2 construct: expressed in transfected cells
T2 sequence (P48544 1-419): T1 sequence (P48544 1-419 G151R) with R151G
Method: (§1) Single copies of WT or mutant human KCNJ5 cDNAs expressed under the control of tetracycline-inducible promoter were introduced into HEK293 cells using the Flp-in T-Rex System (Invitrogen) according to the manufacturer's instructions. Cells were grown in selective media containing 10% Tet-system approved FBS (Clontech) until induction.
20 μL of WT cells were plated into sterile black with clear bottom tissue culture-treated 384-well plates (Corning) at a density of 10000 cells/well using a Multidrop Combi. Assay plates were centrifuged at 500 rpm for 10 seconds and incubated overnight at 37° C. in a humidified 5% CO2 incubator. After the overnight incubation, 1 μL of tetracycline (final conc. 1 μg/mL) was added to all wells by Multidrop Combi to induce KCNJ5. Assay plates were centrifuged at 500 rpm for 10 seconds and incubated overnight at 37° C. in a humidified 5% CO2 incubator. The next day, 10 μL of medium was removed from each well using a PlateMate Plus (Thermo Scientific). 10 μL of Blue Formula FLIPR membrane potential dye (Molecular Devices) was added to cells using a Multichannel pipettor. Assay plates were incubated for 30 minutes. at 37° C. After incubation, 20 nL was transferred twice from the compound source plate to the cell assay plate using an Aquarius with a 384-well pin tool for a total transfer volume of 40 nL and a final DMSO concentration of 0.2%. 1 μL of 20 mM BaCl2 was added to positive control wells using a Multichannel pipettor. The assay plate was incubated 20 minutes at room temperature in the dark.
Changes in membrane potential were detected using a well-established fluorescence-based measure of membrane potential (FIG. 4).

[3] = target: T3, KCNJ5^L168R (Homo sapiens, UniProt P48544, L168R); assay: Cell viability assay (ATP, CellTiter-Glo): rescue of KCNJ5^L168R-induced lethality in inducible HEK293 cells; assay type: cell-based
T3 construct: expressed in transfected cells
T3 sequence (P48544 1-419 L168R): T1 sequence (P48544 1-419 G151R) with R151G, L168R
Method: as §1, with “WT or mutant human KCNJ5 cDNAs (Choi et al., 2011, Science 331:768-772) were subcloned into the pcDNA5/FRT/TO vector using BamHI and HindIII. Single” for “Single”
Assay plates were centrifuged and incubated overnight at 37° C. 20 nL was transferred from the compound source plate to the cell assay plate using an Aquarius (Tecan) with a 384-well pin tool (V&P Scientific). The final concentration of compound for screening was 10 μM and the final DMSO concentration was 0.1%. 1 μL of tetracycline (final concentration 1 μg/mL) was added to compound containing and negative control wells by Multidrop Combi to induce expression. 1 μL of media was added to positive control wells. Assay plates were centrifuged and incubated for 72 hours at 37° C., 5% CO2. CellTiter-Glo (Promega) was used to measure cell viability in the assay wells according to the manufacturer's instructions. 10 μL/well of CellTiter-Glo reagent was added to the assay plates using a MultiDrop Combi. The plates were shaken on a Thermomixer R (Eppendorf) at 1100 rpm for 1 minute and incubated in the dark for 10 minutes at room temperature. Luminescence was read on an Envision plate reader (PerkinElmer) with 0.3 second sampling time per well. Raw data (luminescence counts per second) was normalized to percent effect by the formula 100−(((sample−negative control mean)/(positive control mean−negative control mean))*100).
Data was analyzed using the programs Excel (Microsoft) and Prism (GraphPad). Errors are SD unless otherwise indicated in the legend. Dose-response curves were fitted with a four-parameter logistic equation: F(x)=D+(A−D)/(1+(x/C)^B), with A=minimum inhibition B=Hill's slope C=inflection point D=maximum inhibition Synthesis of Macrolide Derivatives
Cellular ATP levels were measured as a proxy for cell viability, using a commercially available luciferase assay (Crouch et al., 1993, Proc. Natl. Acad. Sci. U.S.A. 109:2533-2538).
Conditions were designed to maximize reproducibility and the signal-to-background ratios (S/B) (Zhang et al., 1999, J. Biomol. Screen 4:67-73) comparing ATP level in uninduced and induced cells. Screening was performed in 384-well plates; compounds were added 24 hours after plating, and channel expression was induced immediately after compound addition. ATP levels were measured 72 hours after induction.

[4] = in vivo; cited from earlier work
[5] = target: T4, KCNJ3/KCNJ5^L168R (Homo sapiens, UniProt P48544, L168R); assay: Perforated whole-cell patch clamp, KCNJ3/KCNJ5^L168R heterotetramers in HEK293T cells; assay type: cell-based; conditions: 1 mM BaCl2, after 20 μM roxithromycin
T4 construct: GFP; expressed in transfected cells; host or cells: HEK293T (American Type Culture Collection), transient co-transfection
T4 sequence (P48544 1-419 L168R): T1 sequence (P48544 1-419 G151R) with R151G, L168R
T4 sequence (P48549 1-501 partner): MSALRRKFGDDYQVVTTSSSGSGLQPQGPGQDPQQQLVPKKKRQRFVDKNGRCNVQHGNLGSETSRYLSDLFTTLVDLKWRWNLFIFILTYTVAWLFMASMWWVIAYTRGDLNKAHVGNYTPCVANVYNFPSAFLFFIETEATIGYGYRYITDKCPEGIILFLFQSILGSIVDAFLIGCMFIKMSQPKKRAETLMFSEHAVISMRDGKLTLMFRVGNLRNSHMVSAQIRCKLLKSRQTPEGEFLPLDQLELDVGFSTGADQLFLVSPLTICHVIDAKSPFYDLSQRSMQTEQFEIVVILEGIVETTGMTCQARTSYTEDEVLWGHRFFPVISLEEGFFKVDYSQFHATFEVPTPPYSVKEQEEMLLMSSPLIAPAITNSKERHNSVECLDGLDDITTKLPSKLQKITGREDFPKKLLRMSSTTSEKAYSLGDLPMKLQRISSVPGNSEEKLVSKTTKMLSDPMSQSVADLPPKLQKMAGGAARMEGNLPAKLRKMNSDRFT
Method: (§2) HEK293T cells (American Type Culture Collection) were used for transient expression of GFP-tagged KCNJ5 or KCNJ3. The cells were grown in Dulbecco's modified Eagle medium (DMEM; Invitrogen) supplemented with 10% FBS (Invitrogen) in 5% CO2 and 95% air at 37° C. Cells were grown to 50-70% confluence for transfection, and the corresponding cDNAs (Choi et al., 2011, Science 331:768-772) were simultaneously applied to the cells using TurboFect transfection reagent according to the manufacturer's protocol (Fermentas). […]
(§3) Within 24 hr after transfection, the cells were treated with trypsin-containing medium (TrypLE Express) (Gibco) for 10 minutes to detach the cells. […] Fluorescence signal (an indication of positive transfection) was detected with an intensified video imaging system including a SIT 68 camera (Long Island Industries). […] After forming a high resistance seal (>2 GΩ), the membrane capacitance was monitored until the whole-cell patch configuration was formed. The cell membrane capacitance was measured and compensated. The K/cation currents were measured from −80 mV to 20 mV with 20 mV steps by an Axon 200A patch-clamp amplifier. The currents were low-pass filtered at 1 KHz and digitized by an Axon interface (Digidata 1200) and were analyzed using the pClamp software system 9 (Axon). […]

[6] = target: T5, KCNJ3/KCNJ5^WT (Homo sapiens, UniProt P48544); assay: Perforated whole-cell patch clamp, KCNJ3/KCNJ5^WT heterotetramers in HEK293T cells; assay type: cell-based; conditions: 1 mM BaCl2
T5 construct: GFP; expressed in transfected cells; host or cells: HEK293T (American Type Culture Collection), transient co-transfection
T5 sequence (P48544 1-419): T1 sequence (P48544 1-419 G151R) with R151G
T5 sequence (P48549 1-501 partner): T4 sequence (P48549 1-501 partner)
Method: as §2, §3

[7] = 10-point dilution 20 to 0.0391 μM, N=3, four-parameter fit
[8] = tested as in FIG. 7 (FIGS. 9 and 10)

CC[C@@H](O)[C@@](C)(O)[C@@H]1OC(=O)[C@H](C)[C@@H](O[C@H]2C[C@@](C)(OC)[C@@H](O)[C@H](C)O2)[C@H](C)[C@@H](O[C@@H]2O[C@H](C)C[C@H](N(C)C)[C@H]2O)[C@@]2(C)CC(C)=C(O2)[C@@H]1C [Pseudo Erythromycin A Enol Ether, pseudo erythromycin A enol ether]
G151R maximum inhibition [1, 7]: 11.13%
G151R minimum inhibition [1, 7]: 1.58%
IC50 [1, 7]: 0.65 µM
WT IC50 [2, 7]: No fit
L168R IC50 [3, 7]: No Fit

C[C@]12CCC(=O)C=C1CC[C@@H]1[C@@H]2[C@@H](O)C[C@]2(C=O)[C@@H](C(=O)CO)CC[C@@H]12 [aldosterone]
plasma half-life [4]: ~30 min

[Ba+2].[Cl-].[Cl-] [barium, BaCl2]
block of remaining KCNJ3/KCNJ5^L168R current [5]: blocked
barium sensitivity of KCNJ3/KCNJ5^WT currents [6]: sensitive

N-demethyl-8,9-anhydroerythromycin A 6,9-hemiacetal [PLUX36]
inhibition of KCNJ5^G151R by synthesized macrolide derivatives [1, 8]: significant inhibition
inhibition of KCNJ5^WT by synthesized macrolide derivatives [2, 8]: no inhibition
inhibition of KCNJ5^L168R by synthesized macrolide derivatives [3, 8]: significant inhibition
